# Experiments:
# [1] = test system: limb muscle injury in male C57Bl/6N mice; assay: In vivo assay for functional response to muscle injury (eccentric contraction-induced muscle fatigue); design: species or system mouse; conditions: FIG. 1
# Excerpt: Under anesthesia, the right hind limb of a mouse is restrained at the knee and the foot attached to a motorized footplate/force transducer. Needle electrodes are inserted into the upper limb, either side of the sciatic nerve and a current sufficient to elicit a maximal muscle contraction is applied. Muscle tension is produced by moving the footplate to lengthen the plantarflexor muscles while the limb is under maximal stimulation. This is repeated 60 times to fatigue the muscles of the lower limb. Anesthesia, limb immobilization and limb stimulation are then repeated at regular intervals to measure maximal isometric force in the recovering limb. 7 to 9 animals are tested for each test condition.
# [2] = test system: prostaglandin D2 generation following 48/80-induced mast cell degranulation; assay: In vivo mast cell activation (compound 48/80-induced degranulation, PGD2 in peritoneal lavage by LC/MS/MS); design: species or system mouse; conditions: normal C57Bl6/N mice; oral 0.1-10 mg/kg ~1 hour prior to 48/80 i.p.; peritoneal lavage 7 minutes afterwards; FIG. 2
# Protocol: Mice were randomized by body weight into 8 groups (n=8): Vehicle (0.5% HPML with 0.1% Tween80)+phosphate buffered saline (PBS), vehicle+compound 48/80 (0.75 mg/ml) and compound 48/80+Example 21 at various doses ranging from 0.1 mg/kg to 10 mg/kg.
# C57BL mice were dosed orally with vehicle, or Example 21 at 0.1, 0.3, 1, 3, & 10 mg/kg. One hour later, blood samples were withdrawn via tail snip for measurement of drug levels, and mice were then terminally anesthetized with 2% isoflurane and given an intraperitoneal injection of 0.2 mL PBS or compound 48/80 solution (0.75 mg/mL, Sigma), followed by gentle massage of the abdomen. Mice were kept under anesthesia for 7 minutes prior to euthanasia. […]
# Samples were thawed at room temperature and vortex-mixed. […] The plate was vortex-mixed for 30 seconds at 1000 rpm and analyzed by LC/MS/MS.
# The analytical system consisted of a CTC HTS PAL autoinjector (Leap, Carrboro, N.C.), an Agilent 1290 Infinity binary pump and thermostated column compartment (Agilent Technologies, Santa Clara, Calif.) and an AB Sciex QTRAP 5500 mass spectrometer (AB Sciex, Framingham, Mass.). […] The analytes were detected by multiple reaction monitoring (MRM) in negative mode using Turbolon spray with the transitions of m/z 351/271 amu for PGD2/PGE2 and m/z 360/280 amu for PGD2-d9/PGE2-d9. […]
smiles,measurement,setting,value
"CC(C)(O)[C@H]1CC[C@H](NC(=O)c2cnc3nc(C4CC4)ccc3c2)CC1 [Example 21, 7-Cyclopropyl-N-((trans)-4-(2-hydroxypropan-2-yl)cyclohexyl)-1,8-naphthyridine-3-carboxamide]",kinetics of recovery of maximal isometric force after injury,[1]; PO 3 and 10 mg/kg QD beginning 10 min prior to eccentric contraction challenge,acceleration in the kinetics of recovery
same,initial magnitude of the injury (isometric limb force 24 hours following protocol initiation),"[1]; PO 3 and 10 mg/kg QD, 24 hours",reduced the initial magnitude of the injury
same,48/80-induced PGD2 generation in lavage fluid,[2],prevents 48/80-induced PGD2 generation

# Reference: patent US11149035B2, “Chemical compounds as H—PGDS inhibitors” (GlaxoSmithKline Intellectual Property Development Limited, priority 2017, dated 2021)
